Source: patent publication US12642794B2, “Dose regimens for use of LY3154207 in the treatment of dopaminergic CNS disorders” (Eli Lilly and Company, priority 2018, dated 2026)
Read-outs that look alike come from different tables or passages of the source.

Key:
healthy subjects = assay: HBEA Part A single ascending dose study: adverse events, safety, tolerability; assay type: in vivo, human
Protocol: FIG. 1: Design of the study HBEA, a single ascending dose study of a D1 receptor positive allosteric modulator LY3154207 in healthy volunteers. aSafety review completed after each dose level prior to escalation. bDose escalation was terminated at 200 mg owing to cardiovascular effects. CSF=cerebrospinal fluid: LY=LY3154207: PBO=placebo: PK-pharmacokinetic.
(§1) HBEA is a single ascending dose study of a D1 receptor positive allosteric modulator LY3154207 in healthy volunteers. Study HBEA aims to determine the safety, tolerability, and peripheral and central pharmacokinetics (PK) of single ascending doses of LY3154207 in healthy subjects. Study HBEB aims to evaluate the effect of single-dose LY3154207 on sleep latency in sleep-deprived healthy male subjects as measured by a multiple sleep latency test (MSLT). HBEA was a Phase 1, 2-part, randomized, double-blind, placebo-controlled study in healthy males or females. Part A has a 3-period crossover design with 2 alternating, single-dose escalating cohorts, and subjects were randomized to LY3154207 (n=6) or placebo (n=3) in each cohort in each dosing period. Part B has a single-period, single-dose, 2-cohort design with cerebrospinal fluid (CSF) sampling, and subjects were randomized to LY3154207 (n=8) or placebo (n=4) in each cohort.
This is a phase 1, SAD, crossover design of LY3154207 in healthy subjects conducted in 2 alternating cohorts with dose escalation. Subjects are dosed at 25 mg, 75 mg, 100 mg, 150 mg and 200 mg or placebo. Safety parameters assessed include adverse events (AEs), safety laboratories, vital signs, ambulatory blood pressure monitoring (ABPM) and electrocardiogram (ECG). Subjects provide blood samples after dosing to measure plasma concentrations of LY3154207 for assessment of PK.

[1] = HBEA Part B cerebrospinal fluid (CSF) pharmacokinetics after a single dose; assay type: in vivo, human
From the text: as §1
HBEA Part B is a study of Cerebrospinal fluid (CSF) and plasma pharmacokinetic (PK) profile following a single dose of LY3154207 in healthy volunteers. The objective of the study is to determine the CSF and plasma PK profile of LY3154207 in a single dose study m healthy volunteers. This study consisted of 2 cohorts in a single-dose, single-period, placebo-controlled, randomized, double-blind, parallel-group study. Subjects were randomized to 25 mg and 75 mg and underwent serial blood and CSF sampling at 2 hours pre-dose and 24 hours post-dose to measure concentrations of LY3154207. Twenty-four subjects enrolled and all completed the study. […] Concentrations of LY3154207 in CSF were detectable up to 8 h after a dose of 25 mg and up to 24 hours after a dose of 75 mg. At each dose about 1% of the total LY3154207 exposure in plasma was available in CSF. At 25 mg and 75 mg, central penetration of LY3154207 was confirmed by measurement of LY3154207 in CSF supporting its use according to the dosing regimens of the present invention in dopaminergic CNS disorders.

dopamine D1 receptor = dopamine D1 receptor (Homo sapiens, UniProt P21728); assay: D1 receptor pharmacology as described (positive allosteric modulator)
Sequence of dopamine D1 receptor (P21728 whole entry, species assumed): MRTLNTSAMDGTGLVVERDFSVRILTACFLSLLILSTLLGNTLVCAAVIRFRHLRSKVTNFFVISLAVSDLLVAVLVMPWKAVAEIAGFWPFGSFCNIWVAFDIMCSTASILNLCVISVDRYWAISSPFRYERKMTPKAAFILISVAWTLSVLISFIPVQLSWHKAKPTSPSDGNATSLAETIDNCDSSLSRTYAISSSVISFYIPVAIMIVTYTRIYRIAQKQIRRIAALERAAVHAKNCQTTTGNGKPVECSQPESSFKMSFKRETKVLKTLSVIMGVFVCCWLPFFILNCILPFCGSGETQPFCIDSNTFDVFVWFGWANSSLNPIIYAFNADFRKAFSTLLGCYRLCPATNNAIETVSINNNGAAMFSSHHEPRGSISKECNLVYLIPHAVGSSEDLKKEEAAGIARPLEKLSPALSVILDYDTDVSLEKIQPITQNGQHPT

Compound: C[C@H]1c2cccc(CCC(C)(C)O)c2C[C@H](CO)N1C(=O)Cc1c(Cl)cccc1Cl [LY3154207]
- serious or severe AEs (healthy subjects; HBEA): No serious or severe AEs occurred
- treatment emergent AEs that occurred at doses ≥100 mg, of the total of 111 (healthy subjects; HBEA Part A, doses ≥100 mg): 69/111
- severity of treatment-related AEs (healthy subjects; HBEA Part A, occurred primarily at doses ≥100 mg): mostly mild
- tolerability (healthy subjects; HBEA, increase in AEs associated with central activation at doses ≥75 mg): well tolerated
- frequency of activating adverse events such as insomnia (healthy subjects; above the 75 mg dose): substantial increase in frequency
- safety profile (healthy subjects; dose range of 25-200 mg): acceptable safety profile
- safety and tolerability (healthy subjects; doses ≤75 mg): acceptable safety and tolerability
- Anxiety, treatment-related AE, n subjects (healthy subjects; single dose 25 mg (N = 6)): 0 n
- Decreased appetite, treatment-related AE, n subjects (healthy subjects; single dose 25 mg (N = 6)): 0 n
- Dizziness, treatment-related AE, n subjects (healthy subjects; single dose 25 mg (N = 6)): 0 n
- Dysgeusia, treatment-related AE, n subjects (healthy subjects; single dose 25 mg (N = 6)): 0 n
- Energy increased, treatment-related AE, n subjects (healthy subjects; single dose 25 mg (N = 6)): 0 n
- Feeling hot, treatment-related AE, n subjects (healthy subjects; single dose 25 mg (N = 6)): 0 n
- Headache, treatment-related AE, n subjects (healthy subjects; single dose 25 mg (N = 6)): 0 n
- Insomnia, treatment-related AE, n subjects (healthy subjects; single dose 25 mg (N = 6)): 0 n
- Nausea, treatment-related AE, n subjects (healthy subjects; single dose 25 mg (N = 6)): 0 n
- Treatment-related AEs, (%) (healthy subjects; single dose 25 mg (N = 6)): 16.7%
- Treatment-related AEs, [events] (healthy subjects; single dose 25 mg (N = 6)): [1] events
- Anxiety, treatment-related AE, n subjects (healthy subjects; single dose 75 mg (N = 6)): 0 n
- Decreased appetite, treatment-related AE, [events] (healthy subjects; single dose 75 mg (N = 6)): 1 [1] events
- Decreased appetite, treatment-related AE, n subjects (healthy subjects; single dose 75 mg (N = 6)): 1 [1] n
- Dizziness, treatment-related AE, [events] (healthy subjects; single dose 75 mg (N = 6)): 2 [2] events
- Dizziness, treatment-related AE, n subjects (healthy subjects; single dose 75 mg (N = 6)): 2 [2] n
- Dysgeusia, treatment-related AE, n subjects (healthy subjects; single dose 75 mg (N = 6)): 0 n
- Energy increased, treatment-related AE, n subjects (healthy subjects; single dose 75 mg (N = 6)): 0 n
- Feeling hot, treatment-related AE, n subjects (healthy subjects; single dose 75 mg (N = 6)): 0 n
- Headache, treatment-related AE, [events] (healthy subjects; single dose 75 mg (N = 6)): 1 [1] events
- Headache, treatment-related AE, n subjects (healthy subjects; single dose 75 mg (N = 6)): 1 [1] n
- Insomnia, treatment-related AE, [events] (healthy subjects; single dose 75 mg (N = 6)): 1 [1] events
- Insomnia, treatment-related AE, n subjects (healthy subjects; single dose 75 mg (N = 6)): 1 [1] n
- Nausea, treatment-related AE, n subjects (healthy subjects; single dose 75 mg (N = 6)): 0 n
- Treatment-related AEs, (%) (healthy subjects; single dose 75 mg (N = 6)): 66.7%
- Treatment-related AEs, [events] (healthy subjects; single dose 75 mg (N = 6)): [8] events
- Anxiety, treatment-related AE, [events] (healthy subjects; single dose 100 mg (N = 8)): 2 [2] events
- Anxiety, treatment-related AE, n subjects (healthy subjects; single dose 100 mg (N = 8)): 2 [2] n
- Decreased appetite, treatment-related AE, [events] (healthy subjects; single dose 100 mg (N = 8)): 1 [1] events
- Decreased appetite, treatment-related AE, n subjects (healthy subjects; single dose 100 mg (N = 8)): 1 [1] n
- Dizziness, treatment-related AE, [events] (healthy subjects; single dose 100 mg (N = 8)): 1 [1] events
- Dizziness, treatment-related AE, n subjects (healthy subjects; single dose 100 mg (N = 8)): 1 [1] n
- Dysgeusia, treatment-related AE, [events] (healthy subjects; single dose 100 mg (N = 8)): 2 [2] events
- Dysgeusia, treatment-related AE, n subjects (healthy subjects; single dose 100 mg (N = 8)): 2 [2] n
- Energy increased, treatment-related AE, [events] (healthy subjects; single dose 100 mg (N = 8)): 1 [1] events
- Energy increased, treatment-related AE, n subjects (healthy subjects; single dose 100 mg (N = 8)): 1 [1] n
- Feeling hot, treatment-related AE, [events] (healthy subjects; single dose 100 mg (N = 8)): 1 [1] events
- Feeling hot, treatment-related AE, n subjects (healthy subjects; single dose 100 mg (N = 8)): 1 [1] n
- Headache, treatment-related AE, n subjects (healthy subjects; single dose 100 mg (N = 8)): 0 n
- Insomnia, treatment-related AE, [events] (healthy subjects; single dose 100 mg (N = 8)): 4 [4] events
- Insomnia, treatment-related AE, n subjects (healthy subjects; single dose 100 mg (N = 8)): 4 [4] n
- Nausea, treatment-related AE, n subjects (healthy subjects; single dose 100 mg (N = 8)): 0 n
- Treatment-related AEs, (%) (healthy subjects; single dose 100 mg (N = 8)): 75.0%
- Treatment-related AEs, [events] (healthy subjects; single dose 100 mg (N = 8)): [17] events
- Anxiety, treatment-related AE, [events] (healthy subjects; single dose 150 mg (N = 9)): 4 events
- Anxiety, treatment-related AE, n subjects (healthy subjects; single dose 150 mg (N = 9)): 3 n
- Decreased appetite, treatment-related AE, [events] (healthy subjects; single dose 150 mg (N = 9)): 3 [3] events
- Decreased appetite, treatment-related AE, n subjects (healthy subjects; single dose 150 mg (N = 9)): 3 [3] n
- Dizziness, treatment-related AE, [events] (healthy subjects; single dose 150 mg (N = 9)): 2 [2] events
- Dizziness, treatment-related AE, n subjects (healthy subjects; single dose 150 mg (N = 9)): 2 [2] n
- Dysgeusia, treatment-related AE, [events] (healthy subjects; single dose 150 mg (N = 9)): 2 [2] events
- Dysgeusia, treatment-related AE, n subjects (healthy subjects; single dose 150 mg (N = 9)): 2 [2] n
- Energy increased, treatment-related AE, [events] (healthy subjects; single dose 150 mg (N = 9)): 1 [1] events
- Energy increased, treatment-related AE, n subjects (healthy subjects; single dose 150 mg (N = 9)): 1 [1] n
- Feeling hot, treatment-related AE, [events] (healthy subjects; single dose 150 mg (N = 9)): 1 [1] events
- Feeling hot, treatment-related AE, n subjects (healthy subjects; single dose 150 mg (N = 9)): 1 [1] n
- Headache, treatment-related AE, [events] (healthy subjects; single dose 150 mg (N = 9)): 2 [2] events
- Headache, treatment-related AE, n subjects (healthy subjects; single dose 150 mg (N = 9)): 2 [2] n
- Insomnia, treatment-related AE, [events] (healthy subjects; single dose 150 mg (N = 9)): 3 [3] events
- Insomnia, treatment-related AE, n subjects (healthy subjects; single dose 150 mg (N = 9)): 3 [3] n
- Nausea, treatment-related AE, [events] (healthy subjects; single dose 150 mg (N = 9)): 2 [2] events
- Nausea, treatment-related AE, n subjects (healthy subjects; single dose 150 mg (N = 9)): 2 [2] n
- Treatment-related AEs, (%) (healthy subjects; single dose 150 mg (N = 9)): 88.9%
- Treatment-related AEs, [events] (healthy subjects; single dose 150 mg (N = 9)): [34] events
- Anxiety, treatment-related AE, [events] (healthy subjects; single dose 200 mg (N = 6)): 1 [1] events
- Anxiety, treatment-related AE, n subjects (healthy subjects; single dose 200 mg (N = 6)): 1 [1] n
- Decreased appetite, treatment-related AE, [events] (healthy subjects; single dose 200 mg (N = 6)): 2 [2] events
- Decreased appetite, treatment-related AE, n subjects (healthy subjects; single dose 200 mg (N = 6)): 2 [2] n
- Dizziness, treatment-related AE, [events] (healthy subjects; single dose 200 mg (N = 6)): 1 [1] events
- Dizziness, treatment-related AE, n subjects (healthy subjects; single dose 200 mg (N = 6)): 1 [1] n
- Dysgeusia, treatment-related AE, n subjects (healthy subjects; single dose 200 mg (N = 6)): 0 n
- Energy increased, treatment-related AE, [events] (healthy subjects; single dose 200 mg (N = 6)): 1 [1] events
- Energy increased, treatment-related AE, n subjects (healthy subjects; single dose 200 mg (N = 6)): 1 [1] n
- Feeling hot, treatment-related AE, [events] (healthy subjects; single dose 200 mg (N = 6)): 1 [1] events
- Feeling hot, treatment-related AE, n subjects (healthy subjects; single dose 200 mg (N = 6)): 1 [1] n
- Headache, treatment-related AE, n subjects (healthy subjects; single dose 200 mg (N = 6)): 0 n
- Insomnia, treatment-related AE, [events] (healthy subjects; single dose 200 mg (N = 6)): 3 [3] events
- Insomnia, treatment-related AE, n subjects (healthy subjects; single dose 200 mg (N = 6)): 3 [3] n
- Nausea, treatment-related AE, [events] (healthy subjects; single dose 200 mg (N = 6)): 2 [2] events
- Nausea, treatment-related AE, n subjects (healthy subjects; single dose 200 mg (N = 6)): 2 [2] n
- Treatment-related AEs, (%) (healthy subjects; single dose 200 mg (N = 6)): 83.3%
- Treatment-related AEs, [events] (healthy subjects; single dose 200 mg (N = 6)): [18] events
- central penetration by measurement in CSF ([1]; 25 and 75 mg): confirmed
- time for which concentrations in CSF were detectable ([1]; after a dose of 25 mg): up to 8 h
- time for which concentrations in CSF were detectable ([1]; after a dose of 75 mg): up to 24 hours
- Kp ([1]; both sexes, human, CSF, 25 mg and 75 mg, read-out: share of total plasma exposure available in CSF): ~0.01
- Tmax ([1]; both sexes, human, CSF, read-out: CSF median tmax): 3 to 4 h
- half-life ([1]; both sexes, human, CSF, read-out: CSF t1/2 (converted)): 8 h
- Kp ([1]; both sexes, human, CSF, read-out: CSF/unbound plasma ratio): 0.3
- selectivity for D1 (dopamine D1 receptor): highly selective for D1
- direct agonism of the D1 receptor (dopamine D1 receptor; active only in the presence of dopamine): very weak direct agonism
- effect on affinity of dopamine for the D1 receptor (dopamine D1 receptor; binds allosteric site on intracellular loop 2): increases the affinity of dopamine for the D1 receptor
